In patent publication US6359142B1 (priority 1998, dated 2002):

How the values were obtained:
[1] = tested on: Phytophthora infestans; type: in vivo; details: tomato, protective, application rate 50 g/ha, evaluation 3 days after inoculation; 0% = control, 100% = no infection
[2] = log p

SMILES | Efficacy in % [1] [%] | melting point [°C] | logP [2]
CCc1c(C#N)oc(=O)n1S(=O)(=O)c1c(C)noc1C [Example 1, 5-cyano4-ethyl-3-(3,5-dimethyl-isoxazole-4-sulphonyl)-3H-[1,3]-oxazol-2-one] | 94 | 117 to 122 | 2.87
CCc1[nH]c(=O)oc1C#N [5-cycano-4-ethyl-3H-[1,3]-oxazol-2-one] |  |  | 0.88
